This is an account of results in EP3498273A1, “PHARMACEUTICAL COMPOSITION FOR MODULATING THE RESPONSE OF A GABA-A RECEPTOR” (Universität Wien, priority 2017, dated 2019).

One assay deals with male C57BL/6N mice. Put plainly: Seizure threshold upon pentylenetetrazole (PTZ) tail-vein infusion. In kind it is in vivo. To be noted: intraperitoneal, 30 min before the test, n = 4, control 39.5 ± 0.8. On the procedure:
Only male C57BL/6N mice (age 3-6 months) were used for determination of the seizure threshold. Intraperitoneal injection of control or compound-containing solutions was done 30 min before the test. Indicated doses in the results represent milligrams per kilogram body weight. Seizure threshold was determined by pentylenetetrazole (PTZ) tail-vein infusion on freely moving animals at a rate of 100 µl/min (10 mg/ml PTZ in saline, pH = 7.4). […] Animals were immediately killed by cervical displacement after onset of seizures. The seizure threshold dose was calculated from the infused dose in relation to body weight (mg/kg).

For assay [1], the system named is native GABAA receptors, primary cultures of dissociated hippocampal neurons. Put plainly: Whole-cell patch clamp on cultured hippocampal neurons (miniature IPSCs and tonic currents). In kind it is cell-based. To be noted: 10 µM compound, holding potential -70 mV. For orientation: The patch-clamp technique gives a direct electrical read-out from membranes.
The target in assay [2] is GABAA receptors composed of α1β2γ2S subunits (Homo sapiens, UniProt P14867+P47870). Put plainly: Two-microelectrode voltage clamp: IGABA enhancement in Xenopus laevis oocytes.
Sequence of GABAA receptors composed of α1β2γ2S subunits (P14867 28-456): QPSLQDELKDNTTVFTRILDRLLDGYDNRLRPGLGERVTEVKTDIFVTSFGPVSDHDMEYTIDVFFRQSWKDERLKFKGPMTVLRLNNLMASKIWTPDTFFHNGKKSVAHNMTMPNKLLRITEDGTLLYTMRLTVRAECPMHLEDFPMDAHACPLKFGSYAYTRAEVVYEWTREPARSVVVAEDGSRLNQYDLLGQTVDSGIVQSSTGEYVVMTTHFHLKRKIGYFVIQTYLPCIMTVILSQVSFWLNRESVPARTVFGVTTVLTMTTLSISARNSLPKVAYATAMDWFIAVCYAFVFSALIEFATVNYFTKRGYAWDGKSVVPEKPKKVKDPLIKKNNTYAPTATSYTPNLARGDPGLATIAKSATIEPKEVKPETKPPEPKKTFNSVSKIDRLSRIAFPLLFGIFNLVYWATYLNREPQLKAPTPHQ
Sequence of GABAA receptors composed of α1β2γ2S subunits (P47870 26-474 isoform P47870-1 limits assumed): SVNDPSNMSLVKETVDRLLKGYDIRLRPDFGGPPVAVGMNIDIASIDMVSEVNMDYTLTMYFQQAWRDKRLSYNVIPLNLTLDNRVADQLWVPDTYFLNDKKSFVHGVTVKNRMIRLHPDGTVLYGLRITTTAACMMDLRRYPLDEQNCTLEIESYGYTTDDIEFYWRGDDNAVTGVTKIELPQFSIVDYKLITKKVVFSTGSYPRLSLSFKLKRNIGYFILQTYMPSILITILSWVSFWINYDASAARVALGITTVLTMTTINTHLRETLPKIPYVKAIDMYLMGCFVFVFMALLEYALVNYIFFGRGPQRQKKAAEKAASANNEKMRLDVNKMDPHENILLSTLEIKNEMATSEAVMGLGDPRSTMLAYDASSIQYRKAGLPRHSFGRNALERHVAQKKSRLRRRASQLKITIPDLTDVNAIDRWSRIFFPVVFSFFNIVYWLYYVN
Sequence of GABAA receptors composed of α1β2γ2S subunits (P18507 40-467 isoform P18507-1 partner limits assumed): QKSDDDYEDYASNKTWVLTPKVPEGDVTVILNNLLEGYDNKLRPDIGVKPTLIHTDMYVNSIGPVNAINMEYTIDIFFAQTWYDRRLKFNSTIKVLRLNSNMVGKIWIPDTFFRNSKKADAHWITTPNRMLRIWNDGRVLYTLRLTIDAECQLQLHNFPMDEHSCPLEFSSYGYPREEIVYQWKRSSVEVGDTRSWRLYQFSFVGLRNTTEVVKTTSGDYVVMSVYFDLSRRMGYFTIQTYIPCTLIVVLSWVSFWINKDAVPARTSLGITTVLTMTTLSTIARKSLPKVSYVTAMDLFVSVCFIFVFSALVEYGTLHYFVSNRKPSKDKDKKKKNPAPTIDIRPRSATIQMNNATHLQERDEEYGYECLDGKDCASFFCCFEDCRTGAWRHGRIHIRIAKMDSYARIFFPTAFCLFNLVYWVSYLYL
The target of assay [3] is GABAA receptors composed of α1β1γ2S subunits (Homo sapiens, UniProt P14867+P18505). The assay is described as above. To be noted: replacing β2/3 by β1; Emax and EC50 not determined.
Sequence of GABAA receptors composed of α1β1γ2S subunits (P14867 28-456): as the sequence (P14867 28-456) above
Sequence of GABAA receptors composed of α1β1γ2S subunits (P18505 26-474): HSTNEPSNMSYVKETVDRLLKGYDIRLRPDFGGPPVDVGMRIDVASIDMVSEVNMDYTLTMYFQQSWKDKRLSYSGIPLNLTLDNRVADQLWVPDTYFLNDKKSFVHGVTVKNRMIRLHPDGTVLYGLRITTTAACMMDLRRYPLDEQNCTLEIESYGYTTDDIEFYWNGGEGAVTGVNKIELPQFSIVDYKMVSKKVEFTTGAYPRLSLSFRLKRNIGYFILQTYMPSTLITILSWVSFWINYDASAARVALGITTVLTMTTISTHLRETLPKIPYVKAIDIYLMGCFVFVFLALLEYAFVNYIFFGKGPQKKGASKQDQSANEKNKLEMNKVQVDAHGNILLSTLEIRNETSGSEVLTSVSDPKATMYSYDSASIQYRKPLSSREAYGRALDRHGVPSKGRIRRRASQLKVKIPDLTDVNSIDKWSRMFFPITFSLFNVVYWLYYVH
Sequence of GABAA receptors composed of α1β1γ2S subunits (P18507 40-467 isoform P18507-1 partner limits assumed): as the sequence (P18507 40-467 isoform P18507-1 partner limits assumed) above

One may read the EC50 as the concentration giving half of the maximal effect. As usually defined, the Emax is the size of the effect at its maximum, as opposed to the concentration needed. As to `C/C(=C/C#N)c1ccc(Cl)cc1Cl` [Compound Z-2, (2Z)-3-(2,4-dichlorophenyl)but-2-enenitrile], the seizure threshold in the assay with male C57BL/6N mice (0.1 mg/kg body weight) came to 48.5 ± 2.3 mg/kg PTZ. The seizure threshold in the assay on male C57BL/6N mice (0.3 mg/kg body weight) turned out to be 52.3±1.6 mg/kg PTZ. In assay [1], the “amplitude of mIPSCs” value is “no effect”, the “frequency of mIPSCs” value is given as “no effect” and the holding currents entry was “shifted towards more negative values”. For the same compound, the “decay of mIPSCS (normalized)” value in assay [1] (compared to control, n=5) came to 213.8 ± 41.0%. Moreover, the EC50 in assay [2] is 9.9 ± 2.5 µM. The Emax in assay [2] (second β2/3 channel of Fig. 1B, printed as α1β3γ2S, n = 3, no unit at this value) was 1804.9 ± 153.0%. The “sensitivity of the resulting GABAA channels” value in assay [3] is reported as “drastically reduced the sensitivity”.
